The values that follow come from publication PMC6492180, “Cytome micronucleus assays with a metabolically competent human derived liver cell line (Huh6): A promising approach for routine testing of chemicals?” (Environmental and Molecular Mutagenesis, 2018).

Molecules are shown by their SMILES. Read-outs that look alike come from different tables or passages of the source. Marks after values point to notes of the source that are not given here.

Data set [1] has as its system Huh6 cells. The protocol: All experiments were performed in duplicate.
3.8–4.0 × 10^5 cells per well were seeded into 6‐well plates with 3 mL of RPMI (4% FBS) for 12 hr, then dilutions of stock solutions of the diagnostic mutagens were added for different time periods (4, 24, and 48 hr). In each experimental series solvent controls were included. Subsequently, the cells were washed twice with 3.0 mL medium. […] Finally, the cells were washed and trypsinised. Afterwards the cells were washed twice with 8.0 mL RPMI and collected on slides by cytocentrifugation (600 rpm, 5 min). The slides were air dried, fixed, and stained with DiffQuick according to the instructions of the manufacturer. For each experimental point, two cultures were tested per dose. From each culture ≥1,000 BN cells were evaluated under 400‐fold magnification (Nikon Photophot‐FXA, Tokyo, Japan). At least 2,000 binucleated cells were analyzed per dose for the determination of the different nuclear anomalies (MN, NBuds, and NBs).
The experiments were performed as described in the previous chapter. The cells were exposed only to one dose of the different mutagens and were cultivated after the seeding in 6‐well plates which contained 4% or 10% FBS in RPMI, respectively.
Data were evaluated by generalized linear model with Poisson counts. Chi‐square tests for overdispersion were applied. […] P values ≤0.05 were considered statistically significant.
^150-60 000 cells were seeded in 6 well plates with 3 ml RPMI (4% FBS), subsequently different solutions of the test compound (dissolved in medium) were added. After treatment for different time periods, the cells was washed and processed as described in the Material and Method section. […] From each culture 1000 binoculated cells were evaluated. BN-MN – number of micronucleated cells; MN - total number of micronuclei; CBPI – cytokinesis-block proliferation index
^1The experiments were conducted essentially as described in the footnote of Table S1A-I. *p≤0.05

The conditions of data set [2]: ref IARC (2018); cited from earlier work.
The test system of data set [3] is Human lymphocytes. Conditions: cited from earlier work.
The subject of data set [4] is HepG2. Conditions: cited from earlier work.
Data set [5] has as its system HepaRG. The note with it: HepaRG; ref Josse et al., 2012; cited from earlier work.
Setting [6] is: 10% FBS, 24 hr treatment, 0.5 µg/ml.
Where [7] appears, read: 10% FBS, 24 hr treatment, 1 µg/ml.

As for `c1ccc2c(c1)cc1ccc3cccc4ccc2c1c34` [B(a)P, Benzo(a)pyrene], the CBPI is reported as 1.6 ± 0.1 in data set [1] (4% FBS, 4hrs, 5 µM); 1.6 ± 0.0 in data set [1] (4% FBS, 4hrs, 10 µM); 1.6 ± 0.1 in data set [1] (4% FBS, 4hrs, 20 µM); 1.4 ± 0.1 in data set [1] (4% FBS, 24hrs, 5 µM); 1.2 ± 0.1 in data set [1] (4% FBS, 24hrs, 10 µM); 1.9 ± 0.0 in data set [1] (4% FBS, 48hrs, 0.4 µM). Further, the CBPI is 1.1 ± 0.1 in data set [1] (4% FBS, 48hrs, 5 µM); 1.7 ± 0.0 in data set [1] (10% FBS, 24 hr treatment, 5 µM); 1.3 ± 0.1 in data set [1] (10% FBS, 24 hr treatment, 10 µM).

For `[NH2][Pt]([NH2])([Cl])[Cl]` [CDDP, Cisplatin], in data set [2], the IARC classification entry is “Crosslinking agent; causes different types of DNA damage (gene mutations and CA); IARC: Group 2A”. Besides, the “Lowest effective concentration (LOEC) in micronucleus experiments” value (shortened to “Lowest effective concentration (LOEC)”) in data set [3] (Human lymphocytes, ref Fowler et al., 2014) is 1.0 (Fowler et al., 2014) μg/mL; in data set [1] (Huh6), 0.5 µg/mL; in data set [4] (HepG2, ref Gajski et al., 2016), 0.1 (Gajski et al., 2016) μg/mL. Further, the “MN effects after 24 hr (or longer) compared with 4 hr treatment (in words)” value in data set [1] (4% FBS) is “similar”. For the same compound, the “Toxicity in MN experiment (Figure 3)” value in data set [1] (4% FBS, 1.0 μg/ml, 48h) is “Toxic”. Besides, the “BN-MN (number of micronucleated cells)” value in data set [1] (4% FBS, 4hrs, 0.05 µg/ml) is listed as 16.0 ± 1.4 ‰; in data set [1] (4% FBS, 4hrs, 0.1 µg/ml) it was 19.5 ± 0.7 ‰; in data set [1] (4% FBS, 4hrs, 0.5 µg/ml), 19.5 ± 0.7 ‰; in data set [1] (4% FBS, 4hrs, 1 µg/ml) it was 31.5 ± 5.0* ‰; in data set [1] (4% FBS, 24hrs, 0.1 µg/ml) it was 13.5 ± 0.7 ‰; in data set [1] (4% FBS, 24hrs, 0.5 µg/ml), 25.5 ± 0.7* ‰. The “BN-MN (number of micronucleated cells)” value in data set [1] (4% FBS, 24hrs, 1 µg/ml) was 29.5 ± 0.7* ‰; in data set [1] (4% FBS, 48hrs, 0.1 µg/ml) it was 16.5 ± 0.7 ‰; in data set [1] (4% FBS, 48hrs, […]) it was 20.0 ± 1.4 ‰; in data set [1] (setting [6]), 38.0 ± 1.4*; in data set [1] (setting [7]), 46.5 ± 2.1*. The Bridges in data set [1] (4% FBS, 4hrs, 0.05 µg/ml) is 0.0 ± 0.0 ‰; in data set [1] (4% FBS, 4hrs, 0.1 µg/ml), 0.0 ± 0.0 ‰; in data set [1] (4% FBS, 4hrs, 0.5 µg/ml), 0.0 ± 0.0 ‰; in data set [1] (4% FBS, 4hrs, 1 µg/ml) it was 3.5 ± 0.7 ‰; in data set [1] (4% FBS, 24hrs, 0.1 µg/ml), 0.0 ± 0.0 ‰; in data set [1] (4% FBS, 24hrs, 0.5 µg/ml), 2.5 ± 0.7 ‰. In addition, the Bridges in data set [1] (4% FBS, 24hrs, 1 µg/ml) is reported as 5.0 ± 1.4 ‰; in data set [1] (4% FBS, 48hrs, 0.1 µg/ml) it was 0.0 ± 0.0 ‰; in data set [1] (setting [6]), 0.5 ± 0.7. The Buds is 15.5 ± 2.1 ‰ in data set [1] (4% FBS, 4hrs, 0.05 µg/ml); 16.5 ± 2.1 ‰ in data set [1] (4% FBS, 4hrs, 0.1 µg/ml); 19.0 ± 1.4* ‰ in data set [1] (4% FBS, 4hrs, 0.5 µg/ml); 34.0 ± 5.7* ‰ in data set [1] (4% FBS, 4hrs, 1 µg/ml); 15.5 ± 0.7 ‰ in data set [1] (4% FBS, 24hrs, 0.1 µg/ml); 30.5 ± 2.1* ‰ in data set [1] (4% FBS, 24hrs, 0.5 µg/ml). Also, the Buds in data set [1] (4% FBS, 24hrs, 1 µg/ml) is 36.0 ± 2.8* ‰; in data set [1] (4% FBS, 48hrs, 0.1 µg/ml) it was 21.5 ± 2.1 ‰; in data set [1] (setting [6]), 32.0 ± 5.7*; in data set [1] (setting [7]), 49.0 ± 2.8*. The CBPI in data set [1] (4% FBS, 4hrs, 0.05 µg/ml) came out at 1.7 ± 0.1; in data set [1] (4% FBS, 4hrs, 0.1 µg/ml), 1.6 ± 0.1; in data set [1] (4% FBS, 4hrs, 0.5 µg/ml), 1.8 ± 0.1; in data set [1] (4% FBS, 4hrs, 1 µg/ml), 1.5 ± 0.1; in data set [1] (4% FBS, 24hrs, 0.1 µg/ml), 1.8 ± 0.1; in data set [1] (4% FBS, 24hrs, 0.5 µg/ml), 2.0 ± 0.0. Moreover, the CBPI stood at 1.8 ± 0.0 in data set [1] (4% FBS, 24hrs, 1 µg/ml); 1.6 ± 0.0 in data set [1] (4% FBS, 48hrs, 0.1 µg/ml); 1.2 ± 0.1 in data set [1] (4% FBS, 48hrs, 1 µg/ml); 1.9 ± 0.0 in data set [1] (setting [6]); 1.9 ± 0.1 in data set [1] (setting [7]). Moreover, the “MN (total number of micronuclei)” value in data set [1] (4% FBS, 4hrs, 0.05 µg/ml) is 16.0 ± 1.4 ‰; in data set [1] (4% FBS, 4hrs, 0.1 µg/ml), 20.0 ± 1.4 ‰; in data set [1] (4% FBS, 4hrs, 0.5 µg/ml), 21.5 ± 0.7 ‰; in data set [1] (4% FBS, 4hrs, 1 µg/ml), 33.5 ± 5.0* ‰; in data set [1] (4% FBS, 24hrs, 0.1 µg/ml), 14.0 ± 0.0 ‰; in data set [1] (4% FBS, 24hrs, 0.5 µg/ml), 34.0 ± 1.4* ‰. Also, the “MN (total number of micronuclei)” value in data set [1] (4% FBS, 24hrs, 1 µg/ml) is reported as 35.0 ± 1.4* ‰; in data set [1] (4% FBS, 48hrs, 0.1 µg/ml), 17.0 ± 1.4 ‰; in data set [1] (4% FBS, 48hrs, […]), 20.5 ± 0.7 ‰; in data set [1] (setting [6]), 40.5 ± 0.7*; in data set [1] (setting [7]) it was 50.0 ± 1.4*. Moreover, in data set [1] (24 hr treatment), the “MN frequencies with 10% serum compared with 4% serum (in words)” value was “pronounced increase”.

For the compound `COc1cc([C@@H]2c3cc4c(cc3[C@@H](O[C@@H]3O[C@@H]5CO[C@@H](C)O[C@H]5[C@H](O)[C@H]3O)[C@H]3COC(=O)[C@H]23)OCO4)cc(OC)c1O` [Etoposide], the CBPI in data set [1] (4% FBS, 4hrs, 0.01 µg/ml) is recorded as 1.8 ± 0.1; in data set [1] (4% FBS, 4hrs, 0.05 µg/ml) it was 1.8 ± 0.1; in data set [1] (4% FBS, 4hrs, 0.1 µg/ml) it was 1.8 ± 0.1; in data set [1] (4% FBS, 24hrs, 0.01 µg/ml), 1.9 ± 0.0; in data set [1] (4% FBS, 24hrs, 0.1 µg/ml) it was 1.8 ± 0.0; in data set [1] (4% FBS, 48hrs, 0.01 µg/ml), 1.7 ± 0.0. Also, the CBPI in data set [1] (4% FBS, 48hrs, 0.1 µg/ml) is on record as 1.1 ± 0.0; in data set [1] (10% FBS, 24 hr treatment, 0.1 µg/ml), 1.9 ± 0.0.

With `OO` [H2O2, Hydrogen peroxide], the “Lowest effective concentration (LOEC)” value in data set [3] is on record as 100 (Andreoli et al., 1999) μM. Also, in data set [1], the “Change of MN rates after 48 hr treatment (in words)” value is “slight decrease”, the “Induction of MN after 4 hr treatment (in words)” value was “did not cause an effect”, the “Lowest effective concentration (LOEC)” value was determined as 10.0 µM and the “MN effects after 24 hr (or longer) compared with 4 hr treatment (in words)” value is “more pronounced effects”. Moreover, the “MN frequencies with 10% serum compared with 4% serum (in words)” value in data set [1] is listed as “not increased”.

Consider `O=P1(N(CCCl)CCCl)NCCCO1` (stereo not shown) [cyclophosphamide], for which, in data set [4], the “MN induction after 28 hr compared with 1 hr exposure (in words)” value is recorded as “stronger effects”.

Take `ClC(Cl)=C(c1ccc(Cl)cc1)c1ccc(Cl)cc1` [dichlorodiphenyldichloroethylene]: the “MN formation with the longer exposure time, treatment for 1 or 7 days (in words)” value in data set [5] is on record as “no such effects”.

Turning to `COC(=O)Nc1nc2cc(C(=O)c3cccs3)ccc2[nH]1` [noctazole], the “MN formation with the longer exposure time, treatment for 1 or 7 days (in words)” value in data set [5] is listed as “no such effects”.
